ChEMBL document CHEMBL5131397, “Discovery and Optimization of Pyrazole Amides as Inhibitors of ELOVL1” (J Med Chem, 2021)
Activity calls are given as the source filed them. The rule behind the calls is not given here.

What was measured:
[1] = target: T1, Very long chain fatty acid elongase 1 (Homo sapiens) (UniProt Q9BW60); assay: Inhibition of ELOVL-1 in human HEK2936E cells assessed as reduction in C24:0 lysophosphatidyl choline synthesis at 100 nM in presence of 13C-labeled acetate measured after 48 hrs; format: cell-based
T1 sequence (whole entry): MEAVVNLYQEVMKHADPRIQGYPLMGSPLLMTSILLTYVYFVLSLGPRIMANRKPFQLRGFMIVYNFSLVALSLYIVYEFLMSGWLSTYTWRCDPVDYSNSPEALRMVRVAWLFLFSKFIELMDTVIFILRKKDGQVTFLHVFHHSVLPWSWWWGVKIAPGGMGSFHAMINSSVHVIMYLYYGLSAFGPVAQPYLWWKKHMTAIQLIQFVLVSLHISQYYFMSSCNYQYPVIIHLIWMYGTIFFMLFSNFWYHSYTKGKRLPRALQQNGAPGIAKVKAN

[2] = Clearance in Cynomolgus monkey at 1 mg/kg, iv upto 48 hrs by LC/MS/MS analysis; format: ADME, organism-based, Macaca fascicularis; details: in vivo
[3] = Half life in mouse at 1 mg/kg, iv upto 48 hrs by LC/MS/MS analysis; format: ADME, organism-based; details: in vivo
[4] = Half life in Beagle dog at 0.5 mg/kg, iv upto 48 hrs by LC/MS/MS analysis; format: ADME, organism-based, Canis lupus familiaris; details: in vivo
[5] = Lipophilicity, logD of compound at pH 7.4; format: physicochemical; details: buffer
[6] = target: T2, Very long chain fatty acid elongase 4 (Homo sapiens, UniProt Q9GZR5); assay: Inhibition of ELOVL4 (unknown origin) in presence of C26-acyl-CoA by radiometric enzyme assay
T2 sequence (Q9GZR5 whole entry): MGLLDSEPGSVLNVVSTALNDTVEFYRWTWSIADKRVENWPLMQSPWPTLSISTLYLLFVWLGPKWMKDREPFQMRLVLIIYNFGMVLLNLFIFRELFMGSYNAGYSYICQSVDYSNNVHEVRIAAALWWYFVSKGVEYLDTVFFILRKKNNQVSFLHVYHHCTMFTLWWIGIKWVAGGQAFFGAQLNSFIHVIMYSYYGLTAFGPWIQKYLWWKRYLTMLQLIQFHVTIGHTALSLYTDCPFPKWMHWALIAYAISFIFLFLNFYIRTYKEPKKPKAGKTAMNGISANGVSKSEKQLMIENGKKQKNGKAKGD

[7] = target: T3, Very long chain fatty acid elongase 1 (Homo sapiens, UniProt Q9BW60); assay: Inhibition of ELOVL1 in human microglia assessed as reduction of C26:0 VLCFA synthesis incubated for 48 hrs by cellular assay; format: cell-based
T3 sequence (Q9BW60 whole entry): T1 sequence (whole entry)

[8] = target: T4, Very long chain fatty acid elongase 7 (Homo sapiens) (UniProt A1L3X0); assay: Inhibition of ELOVL-7 in human HEK2936E cells assessed as increase in C20:0 lipo phosphatidyl choline synthesis at 100 nM in presence of 13C-labeled acetate measured after 48 hrs; format: cell-based
T4 sequence (whole entry): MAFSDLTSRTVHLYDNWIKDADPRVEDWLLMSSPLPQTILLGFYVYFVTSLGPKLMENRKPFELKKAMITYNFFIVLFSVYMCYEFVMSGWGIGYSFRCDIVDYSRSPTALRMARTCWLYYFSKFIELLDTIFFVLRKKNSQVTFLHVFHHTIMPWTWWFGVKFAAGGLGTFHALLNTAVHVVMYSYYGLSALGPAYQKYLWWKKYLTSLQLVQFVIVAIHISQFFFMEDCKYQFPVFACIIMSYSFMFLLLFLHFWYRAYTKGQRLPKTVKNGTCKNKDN

Fibroblast = assay: Reduction in C26:0 lysophosphatidyl choline synthesis in primary human CALD patient-derived fibroblast incubated for 48 hrs; format: functional, cell-based; details: DDE = dose-dependent effect
Mus musculus [9] = assay: Reduction in C26:0/C16:0 LPC level in normal diet fed ABCD1 knock out mouse blood administered orally qd measured after 14 day by LC-MS/MS analysis; format: functional, tissue-based; details: route po, DDE = dose-dependent effect
[10] = Reduction in C26:0/C16:0 LPC level in wild-type Sprague-Dawley rat at 30 mg/kg, po qd treated for 7 days by LC-MS/MS analysis; format: functional; parameters: scale not given: the % may be the effect or the level left; details: time 7 day
Mus musculus [11] = assay: Reduction in C26:0/C16:0 LPC level in high fat diet fed ABCD1 knock out mouse blood at 1 to 8 mg/kg, po qd after 7 days of dosing measured on day 14 by LC-MS/MS analysis; format: functional, organism-based; details: dose 1-8 mg/kg, time 14.0 day
Mus musculus [12] = assay: Reduction in C26:0/C16:0 LPC level in ABCD1 knock out mouse CNS at 1 to 10 mg/kg, po qd measured after 2 months of dosing by LC-MS/MS analysis; format: functional, organism-based; details: dose 1-10 mg/kg
[13] = Reduction in C26:0 LPC level in ABCD1 knock out mouse CNS at 16 mg/kg, po qd measured after 6 months of dosing by LC-MS/MS analysis; format: functional; parameters: scale not given: the % may be the effect or the level left; details: 4380 h
[14] = Reduction in C26:0/C16:0 total VLFCA levels in ABCD1 knock out mouse CNS at 10 mg/kg, po qd measured after 2 months of dosing by LC-MS/MS analysis; format: functional; parameters: scale not given: the % may be the effect or the level left; details: 1460 h
Mus musculus [15] = assay: Reduction in C22:0/C16:0 LPC level in ABCD1 knock out mouse CNS at 1 to 10 mg/kg, po qd measured after 3 months of dosing by LC-MS/MS analysis; format: functional, organism-based; details: dose 1-10 mg/kg
[16] = Increase in C20:0/C16:0 LPC level in ABCD1 knock out mouse CNS at 10 mg/kg, po qd measured after 3 months of dosing by LC-MS/MS analysis; format: functional; details: 2190 h
[17] = Toxicity in ABCD1 knock out mouse assessed as decrease in body weight at 8 to 32 mg/kg, po qd treated for 6 months; format: organism-based; details: in vivo, 4380 h, dose 8-32 mg/kg
[18] = Toxicity in Sprague-Dawley rat assessed as decrease in body weight at 5 to 50 mg/kg/day, po administered for 2 weeks; format: organism-based; details: in vivo, 336 h, dose 5-50 mg/kg/day
[19] = Toxicity in Sprague-Dawley rat assessed as adverse effects at 5 to 50 mg/kg/day, po administered for 8 weeks and measured after cessation dosing by long-term safety study; format: organism-based; details: in vivo, 1344 h, dose 5-50 mg/kg/day
[20] = Toxicity in juvenile Sprague-Dawley rat assessed as corneal lesions at 5 to 75 mg/kg/day, po treatment started from postnatal day 18 to 114 days; format: organism-based; details: in vivo, dose lower 5 mg/kg/day, time lower 18 day, dose upper 75 mg/kg/day, time upper 114 day
[21] = Toxicity in juvenile Sprague-Dawley rat assessed as clonic convulsions 5 to 75 mg/kg/day, po treatment started from postnatal day 75 to 114 days; format: organism-based; details: in vivo, dose lower 5 mg/kg/day, time lower 75 day, dose upper 75 mg/kg/day, time upper 114 day

inhibition [1]: Active | clearance [2]: 7 mL/min/kg | half-life [3]: 2.9 h | half-life [4]: 3.5 h | logD [5]: 3.2 | IC50 [6]: > 200000 nM | IC50 [7]: 11 nM | inhibition [8]: Active
SMILES: O=C(Nc1ccn(-c2ccnc(F)c2)n1)C1(c2ccccc2F)CC1
Activity (Fibroblast): Dde | Activity (Mus musculus [9]): Dde | Activity [10]: 67% | Activity (Mus musculus [11]): Active | Activity (Mus musculus [12]): Active | Activity [13]: 51% | Activity [14]: 50% | Activity (Mus musculus [15]): Active | Activity [16]: 38% | Activity [17]: Non-Toxic | Activity [18]: Toxic | Activity [19]: Non-Toxic | Activity [20]: Toxic | Activity [21]: Toxic
